Results reported in patent publication US20150159169A1, “Plants Tolerant to HPPD Inhibitor Herbicides” (Bayer CropScience AG, priority 2009, published 2015).
Read-outs that look alike come from different tables or passages of the source.

Legend:
[1] = target: T1, Arabidopsis thaliana HPPD "SEQ ID No. 10" (Arabidopsis thaliana, UniProt P93836); assay: HPPD activity in presence of HPPD inhibitors (pI50, % inhibition); assay type: biochemical
T1 construct: made in house; host or cells: E. coli K-12 BL21 (pQE30-AtHPPD)
T1 sequence (P93836 with tags, fused parts or gaps): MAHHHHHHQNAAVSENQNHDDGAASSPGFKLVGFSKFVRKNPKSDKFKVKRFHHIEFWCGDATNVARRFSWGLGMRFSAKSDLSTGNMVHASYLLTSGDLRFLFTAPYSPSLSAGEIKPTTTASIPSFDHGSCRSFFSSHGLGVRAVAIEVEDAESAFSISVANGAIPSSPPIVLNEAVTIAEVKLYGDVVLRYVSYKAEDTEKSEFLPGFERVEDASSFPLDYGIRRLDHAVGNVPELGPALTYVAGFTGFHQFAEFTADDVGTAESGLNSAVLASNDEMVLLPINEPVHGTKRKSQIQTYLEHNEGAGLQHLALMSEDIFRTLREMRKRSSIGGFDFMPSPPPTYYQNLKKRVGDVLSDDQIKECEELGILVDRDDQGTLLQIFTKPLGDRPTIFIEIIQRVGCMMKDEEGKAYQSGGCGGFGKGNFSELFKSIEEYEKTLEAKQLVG

[2] = target: Kordia algicida HPPD "SEQ ID No. 5" (Kordia algicida, UniProt A9DQF2); assay: biochemical; settings: for inhibition at 5 µM: read-out: percentage of inhibition compared to the activity in absence of the inhibitor
Kordia algicida HPPD "SEQ ID No. 5", sequence (A9DQF2 entry or part of it): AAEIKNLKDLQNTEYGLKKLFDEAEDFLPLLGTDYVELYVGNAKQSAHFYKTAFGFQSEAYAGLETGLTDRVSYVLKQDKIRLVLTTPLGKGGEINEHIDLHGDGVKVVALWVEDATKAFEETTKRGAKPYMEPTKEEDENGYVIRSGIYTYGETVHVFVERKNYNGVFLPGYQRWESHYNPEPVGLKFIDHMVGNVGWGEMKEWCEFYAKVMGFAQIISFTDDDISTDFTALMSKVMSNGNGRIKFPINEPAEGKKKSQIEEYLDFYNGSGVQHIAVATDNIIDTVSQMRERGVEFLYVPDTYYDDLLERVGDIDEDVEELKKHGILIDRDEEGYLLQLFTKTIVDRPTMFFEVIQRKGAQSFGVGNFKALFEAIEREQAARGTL

[3] = system: tobacco leaf disks containing SEQ ID No. 11 (Arabidopsis HPPD); assay: Leaf disk regeneration on HPPD inhibitor media; assay type: cell-based, Nicotiana tabacum; settings: 6 weeks
Experimental: (§1) At the end of the experiments the level of regeneration was evaluated as followed:
(§2) “−” means that the leaf disks looked the same as leaf disk from wild type tobacco plants on media supplemented with the inhibitor mentioned above.
(§3) “++++” means that the leaf disks looked like the leaf disks from the wild type tobacco plants on media without inhibitor.
(§4) “+”, “++”, and “+++” indicate regenerated leaf disks were heavily (+), medium (++) and less (+++) affected by the presence of the inhibitors.

[4] = system: tobacco leaf disks containing SEQ ID No. 7 (Kordia algicida HPPD); assay: Leaf disk regeneration on HPPD inhibitor media; assay type: cell-based, Nicotiana tabacum; settings: 6 weeks
Experimental: as §1, §2, §3, §4

[5] = target: Kordia algicida HPPD "SEQ ID No. 5" (FMP27e) (Kordia algicida, UniProt A9DQF2); assay: HPLC assay of HPPD in vitro kinetic properties; assay type: biochemical
Kordia algicida HPPD "SEQ ID No. 5" (FMP27e), sequence (A9DQF2 entry or part of it): as above
Experimental: (§5) Km, Vmax, and kcat values for different HPPD enzyme preparations and Ki, K1=Kon, and K−1=Koff for different HPPD inhibitors were determined using a HPLC assay for measurements of HPPD activity. […] All assays were started by the addition of HPPD enzyme to the assay mixture and stopped at a series of times between 0 and 240 s by addition of 200 μl of the reaction mixture to reaction assay tubes containing 20 μl 10% perchloric acid. Precipitated protein was pelleted by a 5 minute centrifugation at 10,000 g.
(§6) For Km and Vmax value determinations the initial rates of the HPPD reaction at different substrate concentrations were determined from plots of HGA formed versus time and fitted to the Michaelis-Menten equation for unireactant enzymes using the ID Business Solutions Ltd. (idbs.com) XLfit software suite.

[6] = system: T1 tobacco plants carrying FMP27e; assay: Glasshouse response to bicyclopyrone, injury classes; assay type: in vivo, Nicotiana tabacum; settings: 100 g AI/ha, 7 DAT
Excerpt: (§7) Seeds of wild type tobacco plants and T1 tobacco plants carrying the gene from Kordia algicida FMP27e coding for HPPD were sown on MS media (Murashige and Skoog 1964) supplemented with […] kanamycin. After 4 weeks, rooted green plantlets were transferred to soil and grown for 3 weeks in the glasshouse as described above then sprayed with a mixture containing bicyclopyrone (100 g AI/ha), ammonium sulfate and methyl ester raps oil. The plants were classified in two categories based on the phenotype developed in response to the herbicide seven days after the treatment. […] In this case, only plants containing at least one T-DNA were exposed to the herbicidal treatment.

[7] = system: wild type tobacco plants; assay: as above; assay type: in vivo, Nicotiana tabacum; settings: 100 g AI/ha, 7 DAT; WT
Excerpt: as §7

[8] = system: tobacco plants containing FMP27t-h, PAT and 2mEPSPS (pFCO116); assay: Glasshouse response of three-tolerance-gene tobacco to herbicides, injury classes; assay type: in vivo, Nicotiana tobacum; settings: 9 DAT
Experimental: A binary vector for tobacco transformation is, for example, constructed with the CaMV35 promoter driving the expression of the gene FMP27t-h (SEQ ID No. 15), with a codon usage optimized for the expression in dicotyledoneous plants and at its 5′extremity was added a sequence coding for an OTP, and further upstream a sequence TEV (Tobacco etch virus) to improve the stability of the mRNA in plants followed by the CaMV35S terminator. The nucleotide sequence of the gene FMP27t-h is given in SEQ ID No. 15. Additionally, the transformation vector also contains a PAT gene cassette in which the gene is driven by a CaVM35S promoter and followed by a CaMV35S terminator for glufosinate based selection during the transformation process and a 2mEPSPS gene cassette in which the gene is driven by an histone promoter from Arabidopsis to confer tolerance to the herbicide glyphosate to the transformed plants (see FIG. 3 H). The binary vector was called pFCO116. The above vector was used to transform leaf disc obtained from Nicotiana tobacum plants, according to Example 3.
Transgenic tobacco plants were transferred to the greenhouse and treated with glyphosate at a rate of 1121 g AI/ha. Seeds were produced from such tolerant tobacco plants and harvested. These seeds were put on soil to germinate in the glasshouse. Three to four weeks later, 50 plantlets per event were transferred to single pots. Two weeks later, plants of a size 4-6 cm were sprayed either with
[…] […] Non-transgenic tobacco plants were completely killed by treatment using one or more of the above herbicides.

[9] = target: T1, Arabidopsis thaliana HPPD "SEQ ID No. 10"; assay: HPLC assay of HPPD in vitro kinetic properties; assay type: biochemical; settings: substrate HPP varied 10-400 μM; enzyme SEQ ID No. 10
Experimental: as §5, §6

[10] = 5.0 × 10^−6M inhibitor, enzyme SEQ ID No. 5
[11] = substrate HPP varied 10-400 μM, enzyme SEQ ID No. 5

Cc1nn(C)c(O)c1C(=O)c1ccc(C(F)(F)F)cc1S(C)(=O)=O [Pyrasulfotole]
IC50 [1]: 3.98 µM | inhibition at 5 µM ([1]; read-out: percentage of inhibition compared to the activity in absence of the inhibitor): 69% | IC50 [2]: 12.6 µM | inhibition at 5 µM [2]: 43%

CS(=O)(=O)c1ccc(C(=O)C2C(=O)CCCC2=O)c([N+](=O)[O-])c1 [Mesotrione, 2-[4-(methylsulfonyl)-2-nitrobenzoyl]-1,3-cyclohexanedione]
level of leaf disk regeneration ([3]; inhibitor 10^−6 M): − | level of leaf disk regeneration ([4]; inhibitor 10^−6 M): +

CS(=O)(=O)c1cc(C(F)(F)F)ccc1C(=O)C(C#N)C(=O)C1CC1 (centres unmarked) [Diketonitrile, 2-cyano-3-cyclopropyl-1-(2-methylsulphonyl-4-trifluoromethylphenyl)-propane-1,3-dione]
Ki ([5]; read-out: Ki): 15 µM | inhibition at 5 µM [2, 10]: 80% | IC50 ([2]; read-out: pI50 (converted)): 2 µM | level of leaf disk regeneration ([3]; diketonitrile 5.10^−6 M): − | level of leaf disk regeneration ([4]; diketonitrile 5.10^−6 M): +

COCCOCc1nc(C(F)(F)F)ccc1C(=O)C1=C(O)C2CCC(C2)C1=O (centres unmarked) [Bicyclopyrone, 4-hydroxy-3-[[2-[(2-methoxyethoxy)methyl]-6-(trifluoromethyl)-3-pyridinyl]carbonyl]bicyclo[3.2.1]oct-3-en-2-one]
IC50 ([2]; read-out: pI50 (converted)): 10 µM | inhibition at 5 µM [2]: 38% | level of leaf disk regeneration ([3]; inhibitor 10^−6 M): − | level of leaf disk regeneration ([4]; inhibitor 10^−6 M): ++ | % of tolerant plant ([6]; line 121): 39% | Class I, number of plants (injury: 0-30%) ([6]; line 121): 90 | Class II, number of plants (injury: 31-100%) ([6]; line 121): 138 | % of tolerant plant ([6]; line 129): 30% | Class I, number of plants (injury: 0-30%) ([6]; line 129): 47 | Class II, number of plants (injury: 31-100%) ([6]; line 129): 111 | % of tolerant plant ([6]; line 218): 64% | Class I, number of plants (injury: 0-30%) ([6]; line 218): 100 | Class II, number of plants (injury: 31-100%) ([6]; line 218): 56 | % of tolerant plant [7]: 0% | Class I, number of plants (injury: 0-30%) [7]: 0 | Class II, number of plants (injury: 31-100%) [7]: 12

O=C(O)CNCP(=O)(O)O [Glyphosate]
Class I, number of plants (no injuries) ([8]; 1121 g AI/ha, line 639): 9 | Class II, number of plants (injury: 10-40%) ([8]; 1121 g AI/ha, line 639): 0 | Class III, number of plants (injury: 41-100%) ([8]; 1121 g AI/ha, line 639): 1 | Class I, number of plants (no injuries) ([8]; 1121 g AI/ha, line 714): 10 | Class II, number of plants (injury: 10-40%) ([8]; 1121 g AI/ha, line 714): 0 | Class III, number of plants (injury: 41-100%) ([8]; 1121 g AI/ha, line 714): 0 | Class I, number of plants (no injuries) ([8]; 1121 g AI/ha, line 717): 10 | Class II, number of plants (injury: 10-40%) ([8]; 1121 g AI/ha, line 717): 0 | Class III, number of plants (injury: 41-100%) ([8]; 1121 g AI/ha, line 717): 0

CS(=O)(=O)c1ccc(C(=O)C2C(=O)CCCC2=O)c(Cl)c1COCC1CCCO1 (centres unmarked) [Tefuryltrione, 2-[2-chloro-4-(methylsulfonyl)-3-[[(tetrahydro-2-furanyl)methoxy]methyl]benzoyl]-1,3-cyclohexanedione]
inhibition at 5 µM [2, 10]: 73% | IC50 ([2]; read-out: pI50 (converted)): 1.58 µM

CP(=O)(O)CCC(N)C(=O)O (centres unmarked) [Glufosinate-ammonium]
Class I, number of plants (no injuries) ([8]; 1000 g AI/ha, line 639): 10 | Class II, number of plants (injury: 10-40%) ([8]; 1000 g AI/ha, line 639): 0 | Class III, number of plants (injury: 41-100%) ([8]; 1000 g AI/ha, line 639): 0 | Class I, number of plants (no injuries) ([8]; 1000 g AI/ha, line 714): 10 | Class II, number of plants (injury: 10-40%) ([8]; 1000 g AI/ha, line 714): 0 | Class III, number of plants (injury: 41-100%) ([8]; 1000 g AI/ha, line 714): 0 | Class I, number of plants (no injuries) ([8]; 1000 g AI/ha, line 717): 10 | Class II, number of plants (injury: 10-40%) ([8]; 1000 g AI/ha, line 717): 0 | Class III, number of plants (injury: 41-100%) ([8]; 1000 g AI/ha, line 717): 0

O=C(O)C(=O)Cc1ccc(O)cc1 [HPP, para-hydroxyphenylpyruvate]
Km [9]: 6.3 µM | Vmax [9]: 1.2 µM | Km [5, 11]: 292 µM | Vmax [5, 11]: 13.6 µM

Cc1ccc(C(=O)COc2c(C(=O)c3ccc(Cl)c(C)c3Cl)c(C)nn2C)cc1 [Benzofenap]
inhibition at 5 µM [2, 10]: 97% | IC50 ([2]; read-out: pI50 (converted)): < 2.51 µM
